Laboratory results reported in ChEMBL document CHEMBL5137024, “Discovery of novel coumarin-indole derivatives as tubulin polymerization inhibitors with potent anti-gastric cancer activities” (Eur J Med Chem, 2022).
Calls of active or inactive are those of the source. The rule behind the calls is not given here.

How the values were obtained:
HGC-27 [1] = assay: Inhibition of p38 signalling pathway in human HGC-27 cells assessed as reduction in p38 phosphorylation at 10 to 30 nM incubated for 48 hrs; type: cell-based; conditions: dose 10-30 nM
HGC-27 [2] = assay: Induction of apoptosis in human HGC-27 cells assessed as increase in cleavage caspase 3 level; type: functional, cell-based; conditions: dose 10-30 nM, DDE = dose-dependent effect
[3] = Toxicity in BALB/c nude mouse xenografted with human MGC-803 cells assessed as pathological changes in kidney at 15 to 30 mg/kg, ip administered once daily for 21 days by Hematoxyin-eosin staining based analysis; type: organism-based; conditions: in vivo, 504 h, dose 15-30 mg/kg, time 21 day
MGC-803 [4] = assay: Downregulation of cdc2 phosphorylation at Thr14 residue in human MGC-803 cells at 5 to 15 nM incubated for 48 hrs; type: functional, cell-based; conditions: dose 5-15 nM
SH-SY5Y = assay: Antiproliferative activity against human SH-SY5Y cells assessed as reduction in cell viability incubated for 48 hrs by MTT assay; type: functional, cell-based
HGC-27 [5] = assay: Induction of apoptosis in human HGC-27 cells assessed as decrease in cell density at 10 to 30 nM incubated for 48 hrs by bright field imaging analysis; type: functional, cell-based; conditions: dose 10-30 nM
KYSE-450 = assay: Antiproliferative activity against human KYSE-450 cells assessed as reduction in cell viability incubated for 48 hrs by MTT assay; type: functional, cell-based; conditions: KYSE-450, 48 h
Tubulin (Homo sapiens) [6] = target: T1, Tubulin (Homo sapiens) (UniProt P68371+Q9H4B7+P0DPH7+P68366+Q13509+Q71U36+P04350+Q3ZCM7+P07437+P68363+Q9BQE3+Q6PEY2+Q13885+Q9BVA1+Q9BUF5); assay: Disruption of microtubule network in human MGC-803 cells assessed as incomplete mitosis at 5 to 15 nM measured after 48 hrs by DAPI staining based fluorescence microscopic analysis; type: cell-based; conditions: dose 5-15 nM
[7] = Induction of mitochondria mediated intrinsic apoptosis in human MGC-803 cells assessed as early apoptotic cells at 10 nM measured after 48 hrs by flow cytometry analysis (Rvb= 1.6%); type: functional
HGC-27 [8] = assay: Induction of apoptosis in human HGC-27 cells assessed as increase in cleavage substrate PARP level; type: functional, cell-based; conditions: dose 10-30 nM, DDE = dose-dependent effect
HGC-27 [9] = assay: Inhibition of ERK signalling pathway in human HGC-27 cells assessed as downregulation of ERK1/2 phosphorylation at 10 to 30 nM incubated for 48 hrs; type: cell-based; conditions: dose 10-30 nM
HGC-27 [10] = assay: Antiproliferative activity against human HGC-27 cells assessed as inhibition of cell growth at 10 to 30 nM incubated for 60 hrs; type: functional, cell-based; conditions: dose 10-30 nM
MGC-803 [11] = assay: Inhibition of cell migration in human MGC-803 cells assessed as reduction in wound healing rate at 5 to 15 nM incubated for 24 hrs; type: functional, cell-based; conditions: dose 5-15 nM
Tubulin (Homo sapiens) [12] = target: T1, Tubulin (Homo sapiens); assay: Disruption of microtubule network in human MGC-803 cells assessed as irregular form of filamentous microtubule structures at 5 to 15 nM measured after 48 hrs by DAPI staining based fluorescence microscopic analysis; type: cell-based; conditions: dose 5-15 nM
MGC-803 [13] = assay: Induction of apoptosis in human MGC-803 cells assessed as increase in cleavage substrate PARP level; type: functional, cell-based; conditions: dose 5-15 nM, DDE = dose-dependent effect
Mus musculus [14] = assay: Downregulation of JNK phosphorylation in tumor tissue of BALB/c nude mouse xenografted with human MGC-803 cells at 15 to 30 mg/kg, ip administered once daily for 21 days by Western blotting analysis; type: functional, organism-based; conditions: dose 15-30 mg/kg, time 21.0 day
HGC-27 [15] = assay: Induction of apoptosis in human HGC-27 cells assessed as increase in total apoptotic cells at 30 nM incubated for 48 hrs by annexin V FITC and propidium iodide staining based flow cytometry analysis (reference value: 7.2%); type: functional
HGC-27 [16] = assay: Induction of apoptosis in human HGC-27 cells assessed as increase in dead cells at 10 to 30 nM incubated for 48 hrs by calcein-AM dye/propidium iodide staining based analysis; type: functional, cell-based; conditions: dose 10-30 nM
MGC-803 [17] = assay: Induction of apoptosis in human MGC-803 cells assessed as nuclear concentration at 5 to 15 nM incubated for 48 hrs by DAPI staining based analysis; type: functional, cell-based; conditions: dose 5-15 nM
[18] = Toxicity in BALB/c nude mouse xenografted with human MGC-803 cells assessed as pathological changes in heart at 15 to 30 mg/kg, ip administered once daily for 21 days by Hematoxyin-eosin staining based analysis; type: organism-based; conditions: in vivo, 504 h, dose 15-30 mg/kg, time 21 day
[19] = Toxicity in BALB/c nude mouse xenografted with human MGC-803 cells assessed as effect on body weight at 15 to 30 mg/kg, ip administered once daily for 21 days; type: organism-based; conditions: in vivo, 504 h, dose 15-30 mg/kg, time 21 day
EC9706 = assay: Antiproliferative activity against human EC9706 cells assessed as reduction in cell viability incubated for 48 hrs by MTT assay; type: functional, cell-based; conditions: EC9706, 48 h
HGC-27 [20] = assay: Downregulation of c-Myc expression in human HGC-27 cells incubated for 48 hrs; type: functional, cell-based; conditions: dose 10-30 nM, DDE = dose-dependent effect
MGC-803 [21] = assay: Inhibition of ERK signalling pathway in human MGC-803 cells assessed as reduction in downstream substrate p90RSK phosphorylation at 5 to 15 nM incubated for 48 hrs; type: cell-based; conditions: dose 5-15 nM
MGC-803 [22] = assay: Downregulation of FoxO3a expression in human MGC-803 cells incubated for 48 hrs; type: functional, cell-based; conditions: dose 5-15 nM, DDE = dose-dependent effect
HGC-27 [23] = assay: Induction of apoptosis in human HGC-27 cells assessed as upregulation of DR5 level; type: functional, cell-based; conditions: dose 10-30 nM, DDE = dose-dependent effect
HGC-27 [24] = assay: Downregulation of cyclin B1 expression in human HGC-27 cells at 10 to 30 nM incubated for 48 hrs; type: functional, cell-based; conditions: dose 10-30 nM
HGC-27 [25] = assay: Downregulation of Wee1 expression in human HGC-27 cells at 10 to 30 nM incubated for 48 hrs; type: functional, cell-based; conditions: dose 10-30 nM
MGC-803 [26] = assay: Induction of apoptosis in human MGC-803 cells assessed as increase in cleavage caspase 3 level; type: functional, cell-based; conditions: dose 5-15 nM, DDE = dose-dependent effect
MDA-MB-231 = assay: Antiproliferative activity against human MDA-MB-231 cells assessed as reduction in cell viability incubated for 48 hrs by MTT assay; type: functional, cell-based; conditions: MDA-MB-231, 48 h
MGC-803 [27] = assay: Downregulation of c-Myc expression in human MGC-803 cells incubated for 48 hrs; type: functional, cell-based; conditions: dose 5-15 nM, DDE = dose-dependent effect
MGC-803 [28] = assay: Inhibition of p38 signalling pathway in human MGC-803 cells assessed as reduction in MKK3/6 phosphorylation at 5 to 15 nM incubated for 48 hrs; type: cell-based; conditions: dose 5-15 nM
MGC-803 [29] = assay: Induction of apoptosis in human MGC-803 cells assessed as increase in cleavage caspase 7 level; type: functional, cell-based; conditions: dose 5-15 nM, DDE = dose-dependent effect
HGC-27 [30] = assay: Induction of DNA damage in human HGC-27 cells by comet assay; type: functional, cell-based; conditions: dose 10-30 nM, DDE = dose-dependent effect
[31] = Induction of mitochondria mediated intrinsic apoptosis in human HGC-27 cells assessed as early apoptotic cells at 30 nM measured after 48 hrs by flow cytometry analysis (Rvb= 6.4%); type: functional
Mus musculus [32] = assay: Downregulation of ERK1/2 phosphorylation in tumor tissue of BALB/c nude mouse xenografted with human MGC-803 cells at 15 to 30 mg/kg, ip administered once daily for 21 days by Western blotting analysis; type: functional, organism-based; conditions: dose 15-30 mg/kg, time 21.0 day
HGC-27 [33] = assay: Induction of apoptosis in human HGC-27 cells assessed as cell rounding at 10 to 30 nM incubated for 48 hrs by bright field imaging analysis; type: functional, cell-based; conditions: dose 10-30 nM
MGC-803 [34] = assay: Induction of apoptosis in human MGC-803 cells assessed as upregulation of cleavage caspase 8 level; type: functional, cell-based; conditions: dose 5-15 nM, DDE = dose-dependent effect

Question: With `CN(c1ccc2c(ccn2C)c1)c1cc(=O)oc2ccccc12` as the compound, how does the inhibition (HGC-27 [1]) read?
Answer: The inhibition was “Active”.

Question: What about the Activity (HGC-27 [2]) of the same compound?
Answer: Its Activity is “Dde”.

Question: What about the Activity [3] of the same compound?
Answer: Its Activity is “Non-Toxic”.

Question: And the Activity (MGC-803 [4])?
Answer: Its Activity is “Active”.

Question: And the IC50 (SH-SY5Y)?
Answer: Its IC50 is 19.4 nM.

Question: What about the Activity (HGC-27 [5]) of the same compound?
Answer: Its Activity is “Active”.

Question: What about the IC50 (KYSE-450) of the same compound?
Answer: Its IC50 is 21 nM.

Question: And the Activity (Tubulin (Homo sapiens) [6])?
Answer: Its Activity is “Active”.

Question: And the Activity [7]?
Answer: Its Activity is 7.2%.

Question: What about the Activity (HGC-27 [8]) of the same compound?
Answer: Its Activity is “Dde”.

Question: What about the inhibition (HGC-27 [9]) of the same compound?
Answer: The inhibition was “Active”.

Question: What about the inhibition (HGC-27 [10]) of the same compound?
Answer: Its inhibition is “Active”.

Question: What about the inhibition (MGC-803 [11]) of the same compound?
Answer: The inhibition was “Active”.

Question: What about the Activity (Tubulin (Homo sapiens) [12]) of the same compound?
Answer: Its Activity is “Active”.

Question: And the Activity (MGC-803 [13])?
Answer: The Activity was “Dde”.

Question: And the Activity (Mus musculus [14])?
Answer: Its Activity is “Active”.

Question: What about the Activity (HGC-27 [15]) of the same compound?
Answer: The Activity was 47.3%.

Question: And the Activity (HGC-27 [16])?
Answer: The Activity was “Active”.

Question: What about the Activity (MGC-803 [17]) of the same compound?
Answer: The Activity was “Active”.

Question: What about the Activity [18] of the same compound?
Answer: Its Activity is “Non-Toxic”.

Question: What about the Activity [19] of the same compound?
Answer: Its Activity is “Non-Toxic”.

Question: And the IC50 (EC9706)?
Answer: The IC50 was 21.8 nM.

Question: And the Activity (HGC-27 [20])?
Answer: The Activity was “Dde”.

Question: What about the inhibition (MGC-803 [21]) of the same compound?
Answer: Its inhibition is “Active”.

Question: And the Activity (MGC-803 [22])?
Answer: Its Activity is “Dde”.

Question: What about the Activity (HGC-27 [23]) of the same compound?
Answer: The Activity was “Dde”.

Question: What about the Activity (HGC-27 [24]) of the same compound?
Answer: Its Activity is “Active”.

Question: What about the Activity (HGC-27 [25]) of the same compound?
Answer: Its Activity is “Active”.

Question: And the Activity (MGC-803 [26])?
Answer: The Activity was “Dde”.

Question: And the IC50 (MDA-MB-231)?
Answer: Its IC50 is 79.3 nM.

Question: And the Activity (MGC-803 [27])?
Answer: Its Activity is “Dde”.

Question: And the inhibition (MGC-803 [28])?
Answer: The inhibition was “Active”.

Question: What about the Activity (MGC-803 [29]) of the same compound?
Answer: Its Activity is “Dde”.

Question: And the Activity (HGC-27 [30])?
Answer: Its Activity is “Dde”.

Question: What about the Activity [31] of the same compound?
Answer: The Activity was 25.5%.

Question: What about the Activity (Mus musculus [32]) of the same compound?
Answer: Its Activity is “Active”.

Question: What about the Activity (HGC-27 [33]) of the same compound?
Answer: Its Activity is “Active”.

Question: What about the Activity (MGC-803 [34]) of the same compound?
Answer: Its Activity is “Dde”.
